Target: T1, human GPR14 (Homo sapiens, UniProt Q9UKP6)
T1 construct: expressed in transfected cells
T1 sequence (Q9UKP6 1-389): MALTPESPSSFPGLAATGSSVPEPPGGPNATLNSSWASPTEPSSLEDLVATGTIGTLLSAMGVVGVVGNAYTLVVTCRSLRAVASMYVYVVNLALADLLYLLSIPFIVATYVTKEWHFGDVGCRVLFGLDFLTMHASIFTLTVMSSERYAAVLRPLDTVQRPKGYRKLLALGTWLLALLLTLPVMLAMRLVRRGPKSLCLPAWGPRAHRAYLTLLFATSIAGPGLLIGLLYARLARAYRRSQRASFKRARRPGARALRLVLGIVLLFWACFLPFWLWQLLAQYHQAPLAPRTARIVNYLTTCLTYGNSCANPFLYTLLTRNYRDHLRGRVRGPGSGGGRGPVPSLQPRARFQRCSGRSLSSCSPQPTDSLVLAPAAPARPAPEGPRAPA
Experiment: Inhibition of binding of [125I]-labeled human urotensin II to GPR14 using human GPR14-expressing CHO cell fraction
Settings: 1 nM [125I]-labeled human urotensin II; human GPR14-expressing CHO cell membrane fraction; 25° C., 3 hours; read-out: Inhibitory concentration (concentration showing 50% inhibition of human GPR14 binding activity)
Experimental: To 1×10^8 CHO/GPR14 cells were added 10 ml of homogenate buffer (10 mM NaHCO3, 5 mM EDTA, 0.5 mM PMSF, 1 μg/ml pepstatin, 4 μg/ml E64, 20μg/ml leupeptin), and disrupted using Polytron (12,000 rpm, 1 minute). Cell debris solution was centrifuged at 1,000 g for 15 minutes to obtain a supernatant. The supernatant was then […] (in Beckman type 30 rotor, 30,000 rpm, 1 hour), and the resultant precipitant was collected as human GPR14-expressing CHO cell fraction.
Isotope-labeled human urotensin II to be used in experiments for testing inhibition of binding was prepared as described below. 5 μg of human urotensin II (available from Peptide Institute, Inc.) was dissolved in 25 μl of 0.4M sodium acetate (pH 5.6). […]
Human GPR14-expressing CHO cell fraction was diluted in a membrane diluting buffer (20 mM phosphate buffer (pH7.3), 150 mM NaCl, 5 mM MgCl2, 0.1% BSA, 0.05% CHAPS, 0.5 mM PMSF, 0.1 μg/ml Pepstatin, 20 μg/ml Leupeptin, 4 μg/ml E-64) to prepare a solution of cell membrane fraction (protein concentration:3 μg/ml) for assay. […] Next, the filter was washed three times with membrane diluting buffer (0.2 ml), added with 20 μl of Microscinti 20 (Packard), and determined for radioactivity in Topcount (Packard). Specific-binding is calculated by subtracting non-specific binding from the total binding. […]

Compound: Nc1c2c(nc3ccc(-c4ccsc4)cc13)N(Cc1ccccc1)CC2 [compound 3]
- IC50: 0.033 µM
